Molecular target: T1, human SGLT1 (Homo sapiens, UniProt P13866)
T1 construct: expressed in transfected cells
T1 sequence (P13866 1-664): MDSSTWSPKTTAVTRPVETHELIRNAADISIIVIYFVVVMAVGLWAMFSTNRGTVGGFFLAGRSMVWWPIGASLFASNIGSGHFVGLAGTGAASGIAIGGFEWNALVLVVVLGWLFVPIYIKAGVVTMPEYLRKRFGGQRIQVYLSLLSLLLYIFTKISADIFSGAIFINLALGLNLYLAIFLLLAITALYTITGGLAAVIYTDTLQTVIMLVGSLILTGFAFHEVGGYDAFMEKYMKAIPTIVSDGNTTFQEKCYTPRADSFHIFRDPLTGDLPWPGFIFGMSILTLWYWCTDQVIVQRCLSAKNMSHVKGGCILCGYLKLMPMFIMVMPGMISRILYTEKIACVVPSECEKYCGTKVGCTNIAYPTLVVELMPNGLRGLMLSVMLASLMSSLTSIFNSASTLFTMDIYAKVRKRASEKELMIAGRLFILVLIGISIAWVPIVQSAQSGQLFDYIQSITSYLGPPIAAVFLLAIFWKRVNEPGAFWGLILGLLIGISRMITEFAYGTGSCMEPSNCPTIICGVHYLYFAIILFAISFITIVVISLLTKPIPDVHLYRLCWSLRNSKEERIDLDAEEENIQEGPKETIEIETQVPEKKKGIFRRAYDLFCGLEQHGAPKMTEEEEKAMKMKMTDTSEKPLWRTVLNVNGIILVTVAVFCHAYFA
Assay: SGLT1 in vitro assay: Na-dependent 14C-AMG uptake in CHO-K1 cells stably expressing human SGLT1
Format: cell-based
Conditions: CHO-K1 cells stably expressing human SGLT1, 14C-AMG uptake; for inhibition at 0.3 µM: read-out: SGLT1 % Inh @ 0.3 μM; for IC50: compounds of formula (I) where R0 is fluoro
Summary of the method: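 Sodium-dependent uptake of 14C-α-methyl-glucopyranoside ([…]) over 2 h at 37°C was counted by scintillation in stable human SGLT2- or SGLT1-CHO-K1 lines pretreated with 10 mM Na-butyrate. Compounds at 0.001–10 μM were preincubated for 10 min in pH 7.4 buffer with 137 mM NaCl; output is %-inhibition or IC50.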

Row | SMILES | inhibition at 0.3 µM [%] | IC50 [nM]
1 | COc1cc(O)c([C@@H]2O[C@H](CO)C(F)(F)[C@H](O)[C@H]2O)cc1Cc1ccc2c(c1)CCCO2 [Compound 44, (2S,3R,4R,6R)-2-(5-(chroman-6-ylmethyl)-2-hydroxy-4-methoxyphenyl)-5,5-difluoro-6-(hydroxymethyl)tetrahydro-2H-pyran-3,4-diol] | 56.2 | 96
2 | COc1ccc(Cc2cc([C@@H]3O[C@H](CO)C(F)(F)[C@H](O)[C@H]3O)c(O)cc2Cl)cc1 [Compound 81, (2S,3R,4R,6R)-2-(4-chloro-2-hydroxy-5-(4-methoxybenzyl)phenyl)-5,5-difluoro-6-(hydroxymethyl)-tetrahydro-2H-pyran-3,4-diol] | 76.6 | 34
